According to patent US12060387B2, “Polypeptide-based shuttle agents for improving the transduction efficiency of polypeptide cargos to the cytosol of target eukaryotic cells, uses thereof, methods and kits relating to same” (priority 2015, dated 2024):
Like-named read-outs stand apart in the source and are kept apart here. Where no end group is shown, it is not given here.

Experiments:
[1] = Cell viability (%) by flow cytometry; type: cell-based, Chinese hamster; details: CHO cells, Protocol B, shuttle 35 μM, GFP-NLS 5 μM, 10 seconds, read-out: Cell viability (%) (±St. Dev.; n = 3)
Method: (§1) The ability of the shuttle agent His-CM18-PTD4 to deliver GFP-NLS to the nuclei of different adherent and suspension cells using Protocols B (adherent cells) or C (suspension cells) as described in Example 9.1 was examined. The cell lines tested included: HeLa, Balb3T3, HEK 293T, CHO, NIH3T3, Myoblasts, Jurkat, THP-1, CA46, and HT2 cells, which were cultured as described in Example 1. GFP-NLS (5 μM; see Example 5.1) was co-incubated with 35 μM of His-CM18-PTD4 and exposed to adherent cells for 10 seconds (Protocol B), or was co-incubated with 5 μM of His-CM18-PTD4 and exposed to suspension cells for 15 seconds (Protocol C). […] “Pos cells (%)” is the mean percentages of all cells that emanate a GFP signal.

[2] = system: HeLa cells; assay: Cell toxicity / % cell viability by flow cytometry (cells in total events v. untreated); type: cell-based, Human; details: HeLa, Protocol B, GFP-NLS 5 μM, 10 seconds
Description: (§2) The fluorescence of GFP was quantified using flow cytometry (Accuri C6, Becton, Dickinson and Company (BD)). Untreated cells were used to establish a baseline in order to quantify the increased fluorescence due to the internalization of the fluorescent protein in treated cells. The percentage of cells with a fluorescence signal above the maximum fluorescence of untreated cells, “mean %” or “Pos cells (%)”, is used to identify positive fluorescent cells. “Relative fluorescence intensity (FL1-A)” corresponds to the mean of all fluorescence intensities from each cell with a fluorescent signal after fluorescent protein delivery with the shuttle agent. Also, the events scanned by flow cytometry corresponding to cells (size and granularity) were analyzed. The cellular toxicity (% cell viability) was monitored comparing the percentage of cells in the total events scanned of treated cells comparatively to untreated cells.

[3] = as above; type: cell-based, Human; details: human, HeLa cells, HeLa, GFP-NLS 5 μM; for viability at 10 s, 35 µM: shuttle 35 μM; for viability at 10 s, 50 µM: shuttle 50 μM
Description: as §2

[4] = Cell viability (%) by flow cytometry; type: cell-based; details: GFP-NLS 5 μM, read-out: Cell viability (%) (±St. Dev.; n = 3); for viability at 15 s, 5 µM: Protocol C, shuttle 5 μM, 15 seconds; for viability at 10 s, 35 µM: Protocol B, shuttle 35 μM, 10 seconds
Method: as §1

[5] = Cell toxicity / % cell viability by flow cytometry (cells in total events v. untreated); type: cell-based, human; details: human, THP-1 cells, Cell viability (%) (±St. Dev.; n = 3), THP-1; for viability at 15 s, 5 µM: shuttle 5 μM, 15 seconds
Description: as §2

[6] = system: THP-1 cells; assay: as above; type: cell-based, human; details: THP-1, daily 150 min exposure with serum, shuttle 0.8 μM, GFP-NLS 1 μM
Description: as §2

[7] = Cell viability (%) (±St. Dev.; n = 3), FIG. 22B, Protocol B, 10 seconds, read-out: Cell viability (%) (±St. Dev.; n = 3), FIG. 22B

## HHHHHHKWKLFKKIGAVLKVLTTGYARAAARQARA [His-CM18-PTD4]
[1]
  viability at 10 s, 35 µM: 92.8 ± 0.1%
[2]; shuttle 35 μM
  Cell viability (%) (±St. Dev.; n = 3): 94.6 ± 0.4%
[2]; shuttle 50 μM
  Cell viability (%) (±St. Dev.; n = 3), FIG. 29E: 92 ± 3.6%
[3]; Cell viability (%) (± St. Dev.; n = 3), Protocol A, shuttle 10 μM, 1 hour
  viability at 1 h, 10 µM: 96.4 ± 2.7%
[3]; Cell viability (%) (± St. Dev.; n = 3), Protocol B, 10 seconds, read-out: Cell viability (%) (± St. Dev.; n = 3)
  viability at 10 s, 35 µM: 94.6 ± 0.4%
[3]; Cell viability (%) (±St. Dev.; n = 3), FIG. 22B, Protocol B, shuttle 10 μM, 10 seconds
  viability at 10 s, 10 µM: 96.3 ± 2.3%
[3]; Cell viability (%) (±St. Dev.; n = 3), FIG. 22B, Protocol B, shuttle 25 μM, 10 seconds
  viability at 10 s, 25 µM: 95.3 ± 3.7%
[3]; [7]
  viability at 10 s, 35 µM: 79.6 ± 5.9%
  viability at 10 s, 50 µM: 69.2 ± 2.7%
[3]; Cell viability (%) (±St. Dev.; n = 3), FIG. 29A, Protocol B, 10 seconds, read-out: Cell viability (%) (±St. Dev.; n = 3), FIG. 29A
  viability at 10 s, 50 µM: 92 ± 3.6%
[3]; Cell viability (%) (±St. Dev.; n = 3), FIG. 29B, Protocol B, shuttle 10 μM, incubation 1 min., read-out: Cell viability (%) (±St. Dev.; n = 3), FIG. 29B
  viability at 1 min, 10 µM: 97.6 ± 2.7%
[3]; Cell viability (%) (±St. Dev.; n = 3), FIG. 29B, Protocol B, shuttle 10 μM, incubation 2 min., read-out: Cell viability (%) (±St. Dev.; n = 3), FIG. 29B
  viability at 2 min, 10 µM: 80.9 ± 3.2%
[3]; Cell viability (%) (±St. Dev.; n = 3), FIG. 29B, Protocol B, shuttle 10 μM, incubation 5 min., read-out: Cell viability (%) (±St. Dev.; n = 3), FIG. 29B
  viability at 5 min, 10 µM: 66.2 ± 4.4%
[3]; Cell viability (%) (±St. Dev.; n = 3), FIG. 29I, Protocol B, shuttle 20 μM, 1 minute, read-out: Cell viability (%) (±St. Dev.; n = 3), FIG. 29I
  viability at 1 min, 20 µM: 81.6 ± 4.5%
[4]; human, CA46 cells
  viability at 15 s, 5 µM: 71.6 ± 1%
[4]; human, HEK 293T cells
  viability at 10 s, 35 µM: 95.3 ± 1.2%
[4]; human, Jurkat cells
  viability at 15 s, 5 µM: 73.6 ± 0.7%
[4]; human, Myoblasts
  viability at 10 s, 35 µM: 23.5 ± 1.1%
[4]; mouse, Balb3T3 cells
  viability at 10 s, 35 µM: 98.4 ± 0.6%
[4]; mouse, HT2 cells
  viability at 15 s, 5 µM: 90.6 ± 1.5%
[4]; mouse, NIH3T3 cells
  viability at 10 s, 35 µM: 3.3 ± 5.4%
[5]; FIG. 31, Protocol A, shuttle 1 μM, GFP-NLS 5 μM, 1 hour
  viability at 1 h, 1 µM: 96.9 ± 3.6%
[5]; FIG. 31, Protocol C, shuttle 0.5 μM, GFP-NLS 5 μM
  viability at 0.5 µM: 82.1 ± 2.7%
[5]; FIG. 31, Protocol C, GFP-NLS 5 μM, read-out: Cell viability (%) (±St. Dev.; n = 3), FIG. 31
  viability at 15 s, 5 µM: 64 ± 4.1%
[5]; Protocol C, shuttle 1 μM, GFP-NLS 5 μM, incubation time 15 sec, read-out: Cell viability (%) (±St. Dev.; n = 3)
  viability at 15 s, 1 µM: 90 ± 3%
[5]; Protocol C, shuttle 1 μM, GFP-NLS 5 μM, incubation time 30 sec, read-out: Cell viability (%) (±St. Dev.; n = 3)
  viability at 0.5 min, 1 µM: 89 ± 1.1%
[5]; Protocol C, shuttle 1 μM, GFP-NLS 5 μM, incubation time 60 sec, read-out: Cell viability (%) (±St. Dev.; n = 3)
  viability at 1 min, 1 µM: 85.3 ± 3.6%
[5]; Protocol C, shuttle 1 μM, GFP-NLS 5 μM, incubation time 120 sec, read-out: Cell viability (%) (±St. Dev.; n = 3)
  viability at 2 min, 1 µM: 74.3 ± 3.2%
[5]; Protocol C, GFP-NLS 5 μM, read-out: Cell viability (%) (±St. Dev.; n = 3)
  viability at 15 s, 5 µM: 64.1 ± 4.5%
[5]; daily 150 min exposure with serum, shuttle 0.5 μM, GFP-NLS 5 μM, exposure 1 day
  viability at 24 h, 0.5 µM: 98.2 ± 2.4%
[5]; daily 150 min exposure with serum, shuttle 0.5 μM, GFP-NLS 5 μM, exposure 3 days
  viability at 72 h, 0.5 µM: 84.3 ± 3.8%
[5]; daily 150 min exposure with serum, shuttle 0.8 μM, GFP-NLS 2.5 μM, exposure 1 day, read-out: Cell viability (%) (±St. Dev.; n = 3)
  viability at 24 h, 0.8 µM: 92.3 ± 1.9%
[5]; daily 150 min exposure with serum, shuttle 0.8 μM, GFP-NLS 2.5 μM, exposure 3 days, read-out: Cell viability (%) (±St. Dev.; n = 3)
  viability at 72 h, 0.8 µM: 68.5 ± 2.2%
[6]; exposure 1 day
  Cell viability (%) (±St. Dev.; n = 3): 98.4 ± 6.4%
[6]; exposure 3 days
  Cell viability (%) (±St. Dev.; n = 3): 80.6 ± 4.6%
